For 22 compounds, IC50 results are on record in US20260132132A1, “3A,4,5,6-TETRAHYDRO-1 H-PYRAZOLO[3,4-C]PYRIDIN-7(7AH)-ONE DERIVATIVES AS FACTOR XIIA INHIBITORS” (KALVISTA PHARMACEUTICALS LIMITED, priority 2022, published 2026).

In general, IC50 refers to the concentration needed to halve the response being measured.

For the experiment, the target named is T1, Human Factor XIIa (hFXIIa) (Homo sapiens, UniProt P00748).
T1 construct: purchased Enzyme Research Laboratories
T1 sequence (P00748 373-615 limits assumed): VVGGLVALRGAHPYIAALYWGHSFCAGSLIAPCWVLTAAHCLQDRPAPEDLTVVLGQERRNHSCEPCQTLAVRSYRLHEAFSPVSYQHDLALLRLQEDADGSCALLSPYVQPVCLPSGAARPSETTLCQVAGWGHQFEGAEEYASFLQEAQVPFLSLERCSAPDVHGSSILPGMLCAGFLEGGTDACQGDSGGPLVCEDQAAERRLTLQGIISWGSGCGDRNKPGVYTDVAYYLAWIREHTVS
T1 sequence (P00748 20-372 partner limits assumed): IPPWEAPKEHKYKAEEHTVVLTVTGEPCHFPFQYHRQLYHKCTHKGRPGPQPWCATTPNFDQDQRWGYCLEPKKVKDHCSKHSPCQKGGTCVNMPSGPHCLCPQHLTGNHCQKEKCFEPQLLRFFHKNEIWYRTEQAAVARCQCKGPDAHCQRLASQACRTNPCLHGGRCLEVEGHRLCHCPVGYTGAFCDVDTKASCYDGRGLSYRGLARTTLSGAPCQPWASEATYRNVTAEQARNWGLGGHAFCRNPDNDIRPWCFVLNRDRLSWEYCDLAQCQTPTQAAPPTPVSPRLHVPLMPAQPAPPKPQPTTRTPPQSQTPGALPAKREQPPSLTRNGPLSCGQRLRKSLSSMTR
Briefly: Determination of Human Factor XIIa (hFXIIa) inhibition, fluorogenic substrate IC50 assay. It counts as biochemical. Conditions: fluorogenic substrate H-DPro-Phe-Arg-AFC at Km, 25° C., read-out: Human FXIIa IC50. Here is the method: Determination of Human Factor XIIa (hFXIIa) inhibition
The Km for the cleavage of the substrate by hFXIIa was determined by standard transformation of the Michaelis-Menten equation, with subsequent inhibition assays performed at substrate Km concentration.
Turning to `COCc1nn(-c2cccc(Cl)c2)c2c1CCN(c1ccc3c(c1)CN(C)CC3)C2=O` [Example 1066, 1-(3-Chlorophenyl)-3-(methoxymethyl)-6-(2-methyl-1,2,3,4-tetrahydroisoquinolin-7-yl)-1,4,5,6-tetrahydro-7H-pyrazolo[3,4-c]pyridin-7-one], the concentration for half-maximal inhibition (IC50) was in the range of 1000 to 3000 nM.
To `CN1CCc2ccc(N3CCc4c(C(=O)NCC(O)C5CC5)nn(-c5cccc(Cl)c5)c4C3=O)cc2C1` (stereo not shown) [Example 1058, 1-(3-chlorophenyl)-N-(2-cyclopropyl-2-hydroxyethyl)-6-(2-methyl-1,2,3,4-tetrahydroisoquinolin-7-yl)-7-oxo-4,5,6,7-tetrahydro-1H-pyrazolo[3,4-c]pyridine-3-carboxamide] belongs 300 to 1000 nM; to `O=C(NCC1CC1)c1nn(-c2cccc(Cl)c2)c2c1CCN(c1ccc3c(c1)C(=O)N(CCO)CCC3)C2=O` [Example 1294, 1-(3-chlorophenyl)-N-(cyclopropylmethyl)-6-(2-(2-hydroxyethyl)-1-oxo-2,3,4,5-tetrahydro-1H-benzo[c]azepin-8-yl)-7-oxo-4,5,6,7-tetrahydro-1H-pyrazolo[3,4-c]pyridine-3-carboxamide], 100 to 300 nM; to `CCOC(=O)c1nn(-c2cccc(Cl)c2)c2c1CCN(c1ccc(OC)c(C(=O)N(C)C)c1)C2=O` [Example 1324, ethyl 1-(3-chlorophenyl)-6-(3-(dimethylcarbamoyl)-4-methoxyphenyl)-7-oxo-4,5,6,7-tetrahydro-1H-pyrazolo[3,4-c]pyridine-3-carboxylate], 1000 to 3000 nM.
As to `CC(C)n1ccc(CNC(=O)c2nn(-c3cccc(Cl)c3)c3c2CCN(c2ccc4c(c2)C(=O)N(C)CC4)C3=O)n1` [Example 1296, 1-(3-chlorophenyl)-N-((1-isopropyl-1H-pyrazol-3-yl)methyl)-6-(2-methyl-1-oxo-1,2,3,4-tetrahydroisoquinolin-7-yl)-7-oxo-4,5,6,7-tetrahydro-1H-pyrazolo[3,4-c]pyridine-3-carboxamide], the IC50 fell in the range of 100 to 300 nM.
Then `C[C@H](NC(=O)c1nn(-c2cccc(Cl)c2)c2c1CCN(c1ccc3c(c1)CN(CCO)CC3)C2=O)c1cccnc1` [Example 1131, (S)-1-(3-chlorophenyl)-6-(2-(2-hydroxyethyl)-1,2,3,4-tetrahydroisoquinolin-7-yl)-7-oxo-N-(1-(pyridin-3-yl)ethyl)-4,5,6,7-tetrahydro-1H-pyrazolo[3,4-c]pyridine-3-carboxamide], with 100 to 300 nM; and `CN1CCc2ccc(N3CCc4c(C(=O)N[C@@H](CO)c5ccccc5)nn(-c5cccc(Cl)c5)c4C3=O)cc2C1` [Example 1063, (R)-1-(3-chlorophenyl)-N-(2-hydroxy-1-phenylethyl)-6-(2-methyl-1,2,3,4-tetrahydroisoquinolin-7-yl)-7-oxo-4,5,6,7-tetrahydro-1H-pyrazolo[3,4-c]pyridine-3-carboxamide], with 100 to 300 nM.
Then `CN1Cc2ccc(N3CCc4c(C(=O)NCC5CC5)nn(-c5cccc(Cl)c5)c4C3=O)cc2C1=O` [Example 1192, 1-(3-chlorophenyl)-N-(cyclopropylmethyl)-6-(2-methyl-3-oxoisoindolin-5-yl)-7-oxo-4,5,6,7-tetrahydro-1H-pyrazolo[3,4-c]pyridine-3-carboxamide], with 3000 to 10000 nM; and `Cc1ccncc1CNC(=O)c1nn(-c2cccc(Cl)c2)c2c1CCN(c1ccc3c(c1)C(=O)NCC3)C2=O` [Example 1240, 1-(3-chlorophenyl)-N-((4-methylpyridin-3-yl)methyl)-7-oxo-6-(1-oxo-1,2,3,4-tetrahydroisoquinolin-7-yl)-4,5,6,7-tetrahydro-1H-pyrazolo[3,4-c]pyridine-3-carboxamide], with 300 to 1000 nM.
To `O=C(NCC1CC1)c1nn(-c2cccc(Cl)c2)c2c1CCN(c1ccc3c(c1)CN(C1CCC1)CC3)C2=O` [Example 1103, 1-(3-chlorophenyl)-6-(2-cyclobutyl-1,2,3,4-tetrahydroisoquinolin-7-yl)-N-(cyclopropylmethyl)-7-oxo-4,5,6,7-tetrahydro-1H-pyrazolo[3,4-c]pyridine-3-carboxamide] belongs 100 to 300 nM; to `Cc1ccc(N2CCc3c(C(=O)NCC4CC4)nn(-c4cccc(Cl)c4)c3C2=O)cc1C(=O)N(C)C` [Example 1244, 1-(3-chlorophenyl)-N-(cyclopropylmethyl)-6-(3-(dimethylcarbamoyl)-4-methylphenyl)-7-oxo-4,5,6,7-tetrahydro-1H-pyrazolo[3,4-c]pyridine-3-carboxamide], 3000 to 10000 nM.
Regarding `O=C(NCc1ccccc1)c1nn(-c2cccc(Cl)c2)c2c1CCN(c1cccc(CN3CCOCC3)c1)C2=O` [Example 1018, N-benzyl-1-(3-chlorophenyl)-6-(3-(morpholinomethyl)phenyl)-7-oxo-4,5,6,7-tetrahydro-1H-pyrazolo[3,4-c]pyridine-3-carboxamide], the IC50 lay in the range of 1000 to 3000 nM.
Turning to `Cc1cc(CNC(=O)c2nn(-c3cccc(Cl)c3)c3c2CCN(c2ccc4c(c2)N(C)C(=O)C4(C)C)C3=O)nn1C` [Example 1276, 1-(3-chlorophenyl)-N-((1,5-dimethyl-1H-pyrazol-3-yl)methyl)-7-oxo-6-(1,3,3-trimethyl-2-oxoindolin-6-yl)-4,5,6,7-tetrahydro-1H-pyrazolo[3,4-c]pyridine-3-carboxamide], the IC50 is 3000 to 10000 nM.
For `CC1(C)OCCC1NC(=O)c1nn(-c2cccc(Cl)c2)c2c1CCN(c1cccc(CN3CCCCC3)c1)C2=O` (stereo not shown) [Example 1164, 1-(3-chlorophenyl)-N-(2,2-dimethyltetrahydrofuran-3-yl)-7-oxo-6-(3-(piperidin-1-ylmethyl)phenyl)-4,5,6,7-tetrahydro-1H-pyrazolo[3,4-c]pyridine-3-carboxamide], the IC50 is 300 to 1000 nM.
Then `C[C@@H](NC(=O)c1nn(-c2cccc(Cl)c2)c2c1CCN(c1ccc3c(c1)C(=O)N(C)CC3)C2=O)c1cccnc1` [Example 1214, (R)-1-(3-chlorophenyl)-6-(2-methyl-1-oxo-1,2,3,4-tetrahydroisoquinolin-7-yl)-7-oxo-N-(1-(pyridin-3-yl)ethyl)-4,5,6,7-tetrahydro-1H-pyrazolo[3,4-c]pyridine-3-carboxamide], with 300 to 1000 nM; and `Cc1cc(CNC(=O)c2nn(-c3cccc(Cl)c3)c3c2CCN(c2cnc4c(c2)C(=O)N(C)CC4)C3=O)nn1C` [Example 1303, 1-(3-chlorophenyl)-N-((1,5-dimethyl-1H-pyrazol-3-yl)methyl)-6-(6-methyl-5-oxo-5,6,7,8-tetrahydro-1,6-naphthyridin-3-yl)-7-oxo-4,5,6,7-tetrahydro-1H-pyrazolo[3,4-c]pyridine-3-carboxamide], with 300 to 1000 nM; and `CCN1CCc2cnc(N3CCc4c(C(=O)NCC5CC5)nn(-c5cccc(Cl)c5)c4C3=O)nc2C1` [Example 1056, 1-(3-Chlorophenyl)-N-(cyclopropylmethyl)-6-(7-ethyl-5,6,7,8-tetrahydropyrido[3,4-d]pyrimidin-2-yl)-7], with 300 to 1000 nM.
Then `O=C(NCC1CC1)c1nn(-c2cccc(Cl)c2)c2c1CCN(c1ccc3c(c1)CN(CCCF)CC3)C2=O` [Example 1080, 1-(3-chlorophenyl)-N-(cyclopropylmethyl)-6-(2-(3-fluoropropyl)-1,2,3,4-tetrahydroisoquinolin-7-yl)-7-oxo-4,5,6,7-tetrahydro-1H-pyrazolo[3,4-c]pyridine-3-carboxamide], with 100 to 300 nM; and `O=C(NCC1CC1)c1nn(-c2cccc(Cl)c2)c2c1CCN(c1ccc3c(c1)CN(CCCO)CC3)C2=O` [Example 1087, 1-(3-chlorophenyl)-N-(cyclopropylmethyl)-6-(2-(3-hydroxypropyl)-1,2,3,4-tetrahydroisoquinolin-7-yl)-7-oxo-4,5,6,7-tetrahydro-1H-pyrazolo[3,4-c]pyridine-3-carboxamide], with 100 to 300 nM; and `CN1CCc2ccc(N3CCc4c(C(=O)NCC56CCC(CO)(C5)O6)nn(-c5cccc(Cl)c5)c4C3=O)cc2C1=O` (stereo not shown) [Example 1280, 1-(3-chlorophenyl)-N-((4-(hydroxymethyl)-5-oxabicyclo[2.1.1]hexan-1-yl)methyl)-6-(2-methyl-1-oxo-1,2,3,4-tetrahydroisoquinolin-7-yl)-7-oxo-4,5,6,7-tetrahydro-1H-pyrazolo[3,4-c]pyridine-3-carboxamide], with 300 to 1000 nM.
Then `CNC(=O)NCCN1CCc2ccc(N3CCc4c(C(=O)NCC5CC5)nn(-c5cccc(Cl)c5)c4C3=O)cc2C1` [Example 1084, 1-(3-chlorophenyl)-N-(cyclopropylmethyl)-6-(2-(2-(3-methylureido)ethyl)-1,2,3,4-tetrahydroisoquinolin-7-yl)-7-oxo-4,5,6,7-tetrahydro-1H-pyrazolo[3,4-c]pyridine-3-carboxamide], with 100 to 300 nM; and `C[C@H](NC(=O)c1nn(-c2cccc(Cl)c2)c2c1CCN(c1ccc3c(c1)C(=O)N(C)CC3)C2=O)c1cccnc1` [Example 1215, (S)-1-(3-chlorophenyl)-6-(2-methyl-1-oxo-1,2,3,4-tetrahydroisoquinolin-7-yl)-7-oxo-N-(1-(pyridin-3-yl)ethyl)-4,5,6,7-tetrahydro-1H-pyrazolo[3,4-c]pyridine-3-carboxamide], with 100 to 300 nM.
